Laboratory results reported in patent publication US10827753B2, “Compositions and methods for controlling nematodes” (Monsanto Technology LLC, priority 2007, dated 2020).
Like-named read-outs stand apart in the source and are kept apart here. Marks after values point to notes of the source that are not given here.

Experiments:
Meloidogyne incognita [1] = assay: M. incognita miniaturized greenhouse assay on cucumber seedlings (root galling); assay type: in vivo; set-up: key to 1 ppm gall ratings / 1 ppm gall rating: mean of 3 gall ratings: 0=0-5%, 1=6-20%, 2=21-50%, 3=51-100% root galled; conditions: for 8 ppm gall ratings: average of triplicate gall rating, scale 0-3 (% root mass galled)
Procedure: The test compound is dissolved in an acetone solution and added to water. A sprouted cucumber seedling is placed into a vial with dry sand and the water-chemical solution is added immediately. Twenty four hours later Meloidogyne incognita eggs are added to the vials and 10 to 12 days later the roots are evaluated for nematode galling.
Cucumber seeds are sprouted for 3 days in moist paper towels. Acceptable sprouts should be 3 to 4 cm long with several lateral roots just emerging. Stock solutions of chemistry are prepared in a mixture of acetone and Triton X100 (412 mg in 500 mL) to a final concentration of 5 mg/mL. The chemical stock solution is then added to 10 mL deionized water plus 0.015% Triton X100 and mixed thoroughly. This is enough to test each condition in triplicate. Ten mL dry sand is added to each vial. At this time the solubility of the chemistry is visually determined and recorded as either ppt (large precipitates) or cloudy (fine precipitates). Seedlings are planted by tilting the vial and laying the seedling in the correct orientation so that the cotyledons are just above the sand and then tilting back to cover the radicles with sand. 3.3 ml water/chemical mix is added to each vial and the vials placed in racks under fluorescent light banks. The vials are inoculated two days after planting by adding 500 vermiform M. incognita eggs to each vial in 50 uL of deionized or spring water. The vials are then kept under the fluorescent lamps at ambient room temperature and watered as needed with 1 mL deionized water, usually twice during duration of test. Harvest of the cucumber plants is done 10 to 12 days after inoculation by washing sand off the roots. A root gall rating and visual phytotoxicity rating is assigned using the following scales: Gall rating scale (Gall: % root mass galled): 0=0-5%; 1=6-20%; 2=21-50%; and 3=51-100%. The average of the triplicate gall rating is then calculated: green=0.00-0.33 (no galls); yellow=0.67-1.33 (mild galling); orange=1.67-2.33 (moderate galling); red=2.67-3.00 (severe galling). Visual phytotoxicity scale is also assigned (Vis. tox; visual reduction in root mass compared to the control): rs1=mild stunting; rs2=moderate stunting; rs3=severe stunting.

root knot nematode (RKN) = assay: RKN greenhouse soil assay on cucumber plants; assay type: in vivo, Meloidogyne incognita
Source text: Cucumber seeds are planted in a sandy soil mixture in two inch square plastic pots. When the cotyledons are fully opened and just as the first leaf begins to emerge, usually 7 days after planting, chemistry for the 7 day treatment is applied. One week later the chemistry for the 0 day treatment is applied. Separate plants are used for each application. The plants are generally in the 1-2 leaf stage now. At least four hours after the chemistry application the pots are inoculated with root knot nematode (RKN) eggs. Plants are rated for galling 14 days after the egg inoculation.
One milligram of chemistry per four pots is equal to one kilogram per hectare of chemical. A standard test uses four replications. For rates above 2 kg/ha, the desired amount of chemical is weighed into a 30 ml vial (example: 8 kg/ha rate=8 mg chemical in 30 ml vial). The chemical is dissolved in 2 ml of appropriate solvent, generally acetone. For rates below 2 kg/ha, 2 milligrams of chemistry is weighed into the vial and dissolved in 2 ml of the solvent. The appropriate amount of chemical concentrate is then pipetted into a separate 30 ml vial and solvent is added to bring the volume to 2 ml (example 0.5 kg/ha=0.5 ml of concentrate+1.5 ml solvent). Each dissolved concentrate is then brought to a total of 20 milliliters using 0.05% Triton X 100 surfactant solution.
Pots to be treated are moist but not saturated. To each of four pots, five milliliters of the appropriate chemical solution is pipetted to the media surface making sure to avoid contact with the base of the plant. Immediately following chemical application, using a mist nozzle, the pot surface is wetted sufficiently to saturate the pot watering in the chemistry. The chemical application is done in the morning.
Nematode eggs, either SCN or RKN, are added to distilled water to create a concentration of 1000 vermiform eggs […]. At least four hours after chemical treatment the eggs are applied to the treated pots plus non-treated check plants. A small hole about 1 cm deep is punched into the pot surface. One milliliter of the nematode egg slurry is pipetted into the hole. Immediately afterwards the hole is gently covered. Watering of the test plants is then restricted to only water as needed to prevent wilt for a period of 24 hours. After the 24 hour restricted watering, normal sub-irrigation watering is done for the duration of the test.

root knot nematode = assay: Pre-plant incorporated (PPI) greenhouse test of root knot nematode on cucumber plants; assay type: in vivo, Meloidogyne incognita; conditions: Meloidogyne incognita, read-out: percent control (galling reduction) relative to the control blank treatment; for pest or weed control at 4000 g/ha: 4 kg/ha rate; for pest or weed control at 8000 g/ha: 8 ka/ha rate; for pest or weed control at 2000 g/ha: 2 kg/ha rate
Source text: The PPI test examines the effect of pre-incorporation of compounds in soil and longer aging to simulate in furrow methods of nematicide application in the field. The PPI test exposes compounds to a higher volume of soil and drying which can result in more severe soil binding. Compounds are also aged for longer periods which can lead to more extensive biotic and abiotic degradation further limiting activity.
The chemically treated soil (sandy soil mix) for all treatment days (e.g., 7 days, 14 days, 21 days) treatments is potted into their appropriate pots. On the same day the 7 day treatment pots are seeded. One week later eggs are applied and 14 days after egg application the test is harvested. The 14 day treatments are planted 7 days after the first planting. The 14 day planting and 7 day inoculation happen on the same day. One week later the 14 day treatments are inoculated with eggs. These are harvested 14 days after the inoculation. The 21 day treatments are planted 14 days after the first planting. The 14 day inoculation and 21 day planting are done on the same day. One week later the 21 day plants are inoculated with eggs. The 7 day treatment is harvested the same day as the 21 day inoculation. Fourteen days after inoculation the 21 day plants are harvested.
For each compound a stock is prepared using 4 mg material in 4 ml of acetone. The soil is mixed by placing 80 ml of field soil and 320 ml of sand in a plastic bag and mixing well. The formulation for treatment is done by adding 2.13 ml (8 kg/ha rate), 1.06 ml (4 kg/ha rate) or 0.53 ml (2 kg/ha rate) to a vial and raising it with 10 ml in 0.05%×100. Soil is then treated by adding the entire 10 ml to the 400 ml of mix in the bag. The treated soil is immediately mixed well in the sealed bag to distribute the compound evenly. Approximately 95 ml is used to fill each 2-inch square pot up to the top with some soil compression and flattening. For each compound and for the control treatments 4 pots are filled. All pots are watered until moist but with no run-out through the bottom.
The PPI test simulates 8, 4 and 2 kg/ha rates incorporated 15 cm deep in the field and is equivalent to the 2, 1 and 0.5 kg/ha drench application rates in the standard 2-inch pot cucumber greenhouse assay.

Meloidogyne incognita [2] = assay: Summer field evaluation of pre-plant incorporated compounds on squash; assay type: in vivo; conditions: 2 kg PPI, squash
Procedure: Test plots of 33 cm diameter holes were bored 41 cm deep into clay soil and filled with a mixture of 80% sand and 20% silt loam soil. Technical compound for each treatment was dissolved in 50 ml acetone containing 250 ul of Triton X-100 surfactant. This solution was added to 450 ml water and poured onto 95 liters of sand/soil mixture in a rotating drum mixer. While continuing to rotate the mixing drum 66 grams of chopped, galled, tomato roots was added and thoroughly distributed. The treated soil was sufficient to fill the top 15 cm of each of the 6 replicate plots, thus simulating a PPI treatment. The plots were then watered lightly and a mixture of M. incognita eggs and larvae were injected 5 cm deep at 5 points within the plot (100 k eggs/larvae in 10 ml per plot). Three-week old squash (cv. Liberator III) with 1 fully expanded true leaf was planted 4 days after soil treatment, one per plot.

[3] = Acetone 1 mg/kg, standard 10% acetone in 0.05% Triton X 100 formulation
[4] = Radex 1 mg/kg, emulsifiable concentrate, 6.25% active ingredient by weight
[5] = 168 h, seven day pre-plant incorporated
[6] = fourteen day pre-plant incorporated, test a

## Brc1ccc(-c2noc(-c3cccs3)n2)cc1 [compound 1846]
Meloidogyne incognita [1]; Table 1B test a
  1 ppm gall ratings: 1.33
Meloidogyne incognita [1]; Table 1B test b
  1 ppm gall ratings: 0.67
Meloidogyne incognita [1]; 8 ppm
  8 ppm gall ratings: 0 (0=0-5%)
Root knot nematode (RKN); [3]
  percent control (galling reduction) relative to the appropriate control blank treatment: 88%
Root knot nematode (RKN); [4]
  percent control (galling reduction) relative to the appropriate control blank treatment: 86%

## FC(F)(F)c1ccc(-c2noc(-c3cccs3)n2)cc1 [compound 5213]
Meloidogyne incognita [1]; 8 ppm
  8 ppm gall ratings: 0.33
Root knot nematode; [5]
  pest or weed control at 4000 g/ha: 85%
  pest or weed control at 8000 g/ha: 98%

## Brc1ccc(-c2noc(-c3ccco3)n2)cc1 [compound 5467]
Meloidogyne incognita [1]; Table 1B test a
  1 ppm gall ratings: 1.67
Meloidogyne incognita [1]; Table 1B test b
  1 ppm gall ratings: 1.33
Meloidogyne incognita [1]; 8 ppm
  8 ppm gall ratings: 0 (0=0-5%)
Root knot nematode (RKN); [3]
  percent control (galling reduction) relative to the appropriate control blank treatment: 73%
Root knot nematode (RKN); [4]
  percent control (galling reduction) relative to the appropriate control blank treatment: 88%
Root knot nematode; [6]
  pest or weed control at 2000 g/ha: 71%
  pest or weed control at 4000 g/ha: 76%
  pest or weed control at 8000 g/ha: 100%

## Fc1ccc(-c2noc(-c3cccs3)n2)cc1 [compound 5479]
Meloidogyne incognita [1]; Table 1B test a
  1 ppm gall ratings: 1 (1=6-20%)
Meloidogyne incognita [1]; Table 1B test b
  1 ppm gall ratings: 0.67
Meloidogyne incognita [1]; 8 ppm
  8 ppm gall ratings: 0 (0=0-5%)
Root knot nematode (RKN); [3]
  percent control (galling reduction) relative to the appropriate control blank treatment: 91%
Root knot nematode (RKN); [4]
  percent control (galling reduction) relative to the appropriate control blank treatment: 96%
Root knot nematode; [6]
  pest or weed control at 2000 g/ha: 71%
  pest or weed control at 4000 g/ha: 89%
  pest or weed control at 8000 g/ha: 100%

## Clc1ccc(-c2noc(-c3cccs3)n2)cc1 [compound 5527]
Meloidogyne incognita [1]; Table 1B test a
  1 ppm gall ratings: 1.67
Meloidogyne incognita [1]; Table 1B test b
  1 ppm gall ratings: 1 (1=6-20%)
Meloidogyne incognita [1]; 8 ppm
  8 ppm gall ratings: 0.67
Root knot nematode (RKN); [3]
  percent control (galling reduction) relative to the appropriate control blank treatment: 91%
Root knot nematode (RKN); [4]
  percent control (galling reduction) relative to the appropriate control blank treatment: 80%
Root knot nematode; [6]
  pest or weed control at 2000 g/ha: 57%
  pest or weed control at 4000 g/ha: 90%
  pest or weed control at 8000 g/ha: 96%

## Cc1ccccc1-c1noc(-c2cccs2)n1 [compound 5741]
Meloidogyne incognita [1]; Table 1D test a
  1 ppm gall rating: 1^a (1=6-20%)
Meloidogyne incognita [1]; 8 ppm, Table 1D test a
  8 ppm gall rating: 0^a (0=0-5%)

## Fc1cc(Cl)ccc1-c1noc(-c2cccs2)n1 [compound 5860]
Root knot nematode (RKN); 0 day treatment, 0.25 kg/ha, test a
  percent control (galling reduction) relative to the control blank treatment: 47^a percent
Root knot nematode (RKN); 0 day treatment, 1 kg/ha, test a
  percent control (galling reduction) relative to the control blank treatment: 85^a percent
Root knot nematode (RKN); 7 day treatment, 1 kg/ha, test a
  percent control (galling reduction) relative to the control blank treatment: 86^a percent

## Clc1ccc(-c2cnc(-c3cccs3)o2)cc1 [compound 5864]
Meloidogyne incognita [1]; Table 1B test a
  1 ppm gall ratings: 1^a (1=6-20%)

## Cc1occc1-c1nc(-c2ccc(Cl)cc2)no1 [compound 5867]
Meloidogyne incognita [1]; Table 1C test a
  1 ppm gall rating: 1^a (1=6-20%)

## COc1ccc(-c2noc(-c3ccoc3C)n2)cc1 [compound 5869]
Meloidogyne incognita [1]; Table 1C test a
  1 ppm gall rating: 1^a (1=6-20%)

## Cc1cc(Cl)ccc1-c1nnc(-c2ccoc2)o1 [compound 5876]
Meloidogyne incognita [1]; Table 1C test c
  1 ppm gall rating: 1.67^c

## Clc1ccc(-c2noc(-c3ccoc3)n2)cc1 [compound 5882]
Meloidogyne incognita [1]; Table 1B test a
  1 ppm gall ratings: 0.67^a
Meloidogyne incognita [1]; Table 1C test c
  1 ppm gall rating: 0.67^c

## Clc1ccc(-c2noc(-c3ccsc3)n2)cc1 [compound 5885]
Meloidogyne incognita [1]; Table 1C test a
  1 ppm gall rating: 1^a (1=6-20%)

## Clc1ccc(-c2cnc(-c3ccsc3)o2)cc1 [compound 5886]
Meloidogyne incognita [1]; Table 1C test b
  1 ppm gall rating: 1.33^b

## Clc1ccc(-c2cnc(-c3ccoc3)o2)cc1 [compound 5887]
Meloidogyne incognita [1]; Table 1C test b
  1 ppm gall rating: 1^b (1=6-20%)

## Clc1cc(Br)ccc1-c1nsc(-c2ccco2)n1 [compound 5961]
Root knot nematode (RKN); 0 day treatment, 0.05 kg/ha, test c
  percent control (galling reduction) relative to the control blank treatment: — — 73^c percent
Root knot nematode (RKN); 0 day treatment, 0.1 kg/ha, test c
  percent control (galling reduction) relative to the control blank treatment: — — 88^c percent
Root knot nematode (RKN); 0 day treatment, 0.25 kg/ha, test c
  percent control (galling reduction) relative to the control blank treatment: — — 81^c percent

## Cc1cc(Cl)ccc1-c1nc(-c2ccco2)no1 [compound 5969]
Meloidogyne incognita [1]; Table 1B test e
  1 ppm gall ratings: 1^e (1=6-20%)

## Fc1cc(Cl)ccc1-c1ncc(-c2cccs2)o1 [compound 5970]
Meloidogyne incognita [1]; Table 1B test e
  1 ppm gall ratings: 1^e (1=6-20%)

## CCOP(=O)(SC(C)CC)N1CCSC1=O (stereo not shown) [fosthiazate, reference compound]
Meloidogyne incognita [2]
  0-3 vigor 16 DAP: 3.0
  0-3 vigor 21 DAP: 3.0
  feeder root (3 = ave) 31 DAP: 2.3
  gall % 31 DAP: 5%
  root wgt (g) 31 DAP: 26.4 g
  top wgt (lbs) 31 DAP: 2.01 lbs
  total fruit (lbs): 1.25 lbs
